Patent publication US20230203098A1, “HUMAN TRANSFERRIN RECEPTOR BINDING PEPTIDE” (priority 2020, published 2023)
Where two headings read alike, the source gives them in different places. Blank lines part the entries; values can stand above or below the compound they belong to. Where a SMILES comes first, the peptide text is derived from it. Bridges are numbered along the chain shown (N, C = ends). [ ]: non-standard residue; d: D form. The star is where a group is joined. X2 = O=C(O)c1cc(C(=O)*)ccc1-c1c2ccc(=O)cc-2oc2cc(O)ccc12; PEG12 = NCCOCCOCCOCCOCCOCCOCCOCCOCCOCCOCCOCCOCCC(=O)O; NMePhe(3-Cl) = CN[C@@H](Cc1cccc(Cl)c1)C(=O)O; NMeW = CN[C@@H](Cc1c[nH]c2ccccc12)C(=O)O; NMeY = CN[C@@H](Cc1ccc(O)cc1)C(=O)O; 4Pal = N[C@@H](Cc1ccncc1)C(=O)O; PEG4 = NCCOCCOCCOCCOCCC(=O)O; Nle = CCCC[C@H](N)C(=O)O; Orn = NCCC[C@H](N)C(=O)O

Molecular target: transferrin receptor (hTfR) (Homo sapiens, UniProt P02786)
Sequence (P02786 whole entry): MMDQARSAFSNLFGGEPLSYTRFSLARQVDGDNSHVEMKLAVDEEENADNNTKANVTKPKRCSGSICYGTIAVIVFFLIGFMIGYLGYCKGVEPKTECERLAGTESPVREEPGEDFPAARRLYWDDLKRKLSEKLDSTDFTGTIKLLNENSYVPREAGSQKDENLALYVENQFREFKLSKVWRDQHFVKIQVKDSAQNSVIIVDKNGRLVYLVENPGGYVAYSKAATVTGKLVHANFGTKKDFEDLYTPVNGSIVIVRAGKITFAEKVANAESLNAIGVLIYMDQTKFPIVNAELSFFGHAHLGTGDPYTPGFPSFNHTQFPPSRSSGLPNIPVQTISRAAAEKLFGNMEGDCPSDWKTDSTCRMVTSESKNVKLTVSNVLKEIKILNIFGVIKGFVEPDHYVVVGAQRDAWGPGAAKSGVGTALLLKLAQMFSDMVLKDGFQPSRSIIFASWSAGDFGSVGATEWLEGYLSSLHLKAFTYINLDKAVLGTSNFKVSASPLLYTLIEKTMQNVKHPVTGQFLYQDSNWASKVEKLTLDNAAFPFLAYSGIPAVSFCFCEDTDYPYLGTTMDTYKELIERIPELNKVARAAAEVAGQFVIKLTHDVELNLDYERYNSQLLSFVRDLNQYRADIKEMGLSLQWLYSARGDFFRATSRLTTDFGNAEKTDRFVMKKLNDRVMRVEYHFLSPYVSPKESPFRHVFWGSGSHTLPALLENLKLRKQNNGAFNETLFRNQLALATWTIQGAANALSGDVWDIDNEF
Assay: Intermolecular interaction evaluation test between transferrin receptor (hTfR) and peptide by surface plasmon resonance (SPR)
Assay type: binding
How it was run: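 Receptor was Ni-captured and EDC/NHS-fixed on an NTA chip; running buffer HEPES pH 8.0 with NaCl, Tween 20, BSA and 1.0% DMSO.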

[1] = SPR, peptides, linker-added peptides and FITC conjugates, Patent ID 203-230, read-out: KD
[2] = surface plasmon resonance, hTfR, read-out: KD value for hTfR by SPR (class symbol)
[3] = binding to hTfR by SPR, Table 2 peptides, read-out: KD value (SPR) class
[4] = surface plasmon resonance, peptide vs hTfR, read-out: KD value for hTfR by SPR (class symbol)
[5] = hTfR binding by SPR, hTfR No. 894 variant peptides, linker-added peptides and payload conjugates (Table 2), read-out: KD value obtained from the SPR measurement

Kd (SPR, hTfR, class symbols A-D, read-out: KD): 1 to 100 nM
SMILES: CC[C@H](C)[C@@H]1NC(=O)[C@H](Cc2ccncc2)NC(=O)[C@H](Cc2ccc(O)cc2)NC(=O)[C@H](CC(N)=O)NC(=O)[C@H](Cc2c[nH]c3ccccc23)N(C)C(=O)[C@H](C(C)C)NC(=O)[C@H](Cc2cccc(Cl)c2)N(C)C(=O)[C@H](C(C)C)NC(=O)[C@H](C)NC(=O)CSC[C@@H](C(N)=O)NC(=O)[C@H](Cc2ccc(O)cc2)N(C)C(=O)[C@H](Cc2ccccc2)NC(=O)[C@@H](CCCNC(=N)N)NC(=O)[C@H](CCCNC(=N)N)NC(=O)[C@H]([C@@H](C)CC)NC1=O [compound 455] ({CH2CO}-AV[NMePhe(3-Cl)]V[NMeW]NY[4Pal]IIR[dR]F[NMeY]C-NH2; thioether N-15)

Kd [2]: 1 to 100 nM
SMILES: CC[C@H](C)[C@@H]1NC(=O)[C@H](Cc2ccc(OC)cc2)NC(=O)[C@H](Cc2ccc(O)cc2)NC(=O)[C@H](CC(N)=O)NC(=O)[C@H](Cc2c[nH]c3ccccc23)N(C)C(=O)[C@H](C(C)C)NC(=O)[C@H](Cc2cccc(Cl)c2)N(C)C(=O)[C@H](C(C)C)NC(=O)[C@H](C)NC(=O)CSC[C@@H](C(N)=O)NC(=O)[C@H](Cc2ccc(O)cc2)N(C)C(=O)[C@H](Cc2ccccc2)NC(=O)[C@@H](CCCNC(=N)N)NC(=O)C(C)(C)NC(=O)[C@H]([C@@H](C)CC)NC1=O [compound 353]

Kd [2]: 1 to 100 nM
SMILES: CCCC[C@@H]1NC(=O)[C@H]([C@@H](C)CC)NC(=O)[C@H]([C@@H](C)CC)NC(=O)[C@H](Cc2ccc(OC)cc2)NC(=O)[C@H](Cc2ccc(O)cc2)NC(=O)[C@H](CC(N)=O)NC(=O)[C@H](Cc2c[nH]c3ccccc23)N(C)C(=O)[C@H](C(C)C)NC(=O)[C@H](Cc2cccc(Cl)c2)N(C)C(=O)[C@H](C(C)C)NC(=O)[C@H](C)NC(=O)CSC[C@@H](C(=O)NCCOCCOCCOCCOCCC(N)=O)NC(=O)[C@H](Cc2ccc(O)cc2)N(C)C(=O)[C@H](Cc2ccccc2)NC(=O)[C@@H](CCCNC(=N)N)NC1=O [compound 361] ({CH2CO}-AV[NMePhe(3-Cl)]V[NMeW]NYY(Me)II[Nle][dR]F[NMeY]C[PEG4]-NH2; thioether N-15)

Kd (surface plasmon resonance, peptide vs hTfR, read-out: KD value, hTfR binding by SPR (class symbol)): 1 to 100 nM
SMILES: CC[C@H](C)[C@@H]1NC(=O)[C@H](Cc2ccc(OCC(=O)O)cc2)NC(=O)[C@H](Cc2ccc(O)cc2)NC(=O)[C@H](CC(N)=O)NC(=O)[C@H](Cc2c[nH]c3ccccc23)N(C)C(=O)[C@H](C(C)C)NC(=O)[C@H](Cc2cccc(Cl)c2)N(C)C(=O)[C@H](C(C)C)NC(=O)[C@H](C)NC(=O)CSC[C@@H](C(N)=O)NC(=O)[C@H](Cc2ccc(O)cc2)N(C)C(=O)[C@H](Cc2ccccc2)NC(=O)[C@@H](CCCNC(=N)N)NC(=O)[C@H](CCCNC(=N)N)NC(=O)[C@H]([C@@H](C)CC)NC1=O [compound 320]

Kd [2]: 1 to 100 nM
SMILES: CC[C@H](C)[C@@H]1NC(=O)[C@H](Cc2ccc(OC)cc2)NC(=O)[C@H](Cc2ccc(O)cc2)NC(=O)[C@H](CC(N)=O)NC(=O)[C@H](Cc2c[nH]c3ccccc23)N(C)C(=O)[C@H](C(C)C)NC(=O)[C@H](Cc2cccc(Cl)c2)N(C)C(=O)[C@H](C(C)C)NC(=O)[C@H](C)NC(=O)CSC[C@@H](C(=O)NCCOCCOCCOCCOCCC(N)=O)NC(=O)[C@H](Cc2ccc(O)cc2)N(C)C(=O)[C@H](Cc2ccccc2)NC(=O)[C@@H](CCCNC(=N)N)NC(=O)[C@H](CCCCN)NC(=O)[C@H]([C@@H](C)CC)NC1=O [compound 374] ({CH2CO}-AV[NMePhe(3-Cl)]V[NMeW]NYY(Me)IIK[dR]F[NMeY]C[PEG4]-NH2; thioether N-15)

The next lines start with the compound.

SMILES: CC[C@H](C)[C@@H]1NC(=O)[C@H](Cc2ccc(OC)cc2)NC(=O)[C@H](Cc2ccc(O)cc2)NC(=O)[C@H](CC(N)=O)NC(=O)[C@H](Cc2c[nH]c3ccccc23)N(C)C(=O)[C@H](C(C)C)NC(=O)[C@H](Cc2cccc(Cl)c2)N(C)C(=O)[C@H](CCC(=O)O)NC(=O)[C@H](C)NC(=O)CSC[C@@H](C(=O)NCC(=O)NCC(=O)NCC(=O)NCC(=O)N[C@@H](CO)C(=O)N[C@@H](CO)C(=O)N[C@@H](CS)C(N)=O)NC(=O)[C@H](Cc2ccc(O)cc2)N(C)C(=O)[C@H](Cc2ccccc2)NC(=O)[C@@H](CCCNC(=N)N)NC(=O)[C@H](CCCNC(=N)N)NC(=O)[C@H](CCC(=O)O)NC1=O [compound 223]
Kd [1]: 1 to 100 nM

SMILES: CC[C@H](C)[C@@H]1NC(=O)[C@H](Cc2ccc(OC)cc2)NC(=O)[C@H](Cc2ccc(O)cc2)NC(=O)[C@H](CC(N)=O)NC(=O)[C@H](Cc2c[nH]c3ccccc23)N(C)C(=O)[C@H](C(C)C)NC(=O)[C@H](Cc2cccc(Cl)c2)N(C)C(=O)[C@H](CCC(=O)O)NC(=O)[C@H](C)NC(=O)CSC[C@@H](C(N)=O)NC(=O)[C@H](CO)NC(=O)[C@H]([C@@H](C)CC)NC1=O [compound 203] ({CH2CO}-AE[NMePhe(3-Cl)]V[NMeW]NYY(Me)IISC-NH2; thioether N-12)
Kd [1]: 1 to 100 nM

SMILES: CC[C@H](C)[C@@H]1NC(=O)[C@H](Cc2ccc(O)cc2)NC(=O)[C@H](Cc2ccc(O)cc2)NC(=O)[C@H](CC(N)=O)NC(=O)[C@H](Cc2c[nH]c3ccccc23)N(C)C(=O)[C@H](C(C)C)NC(=O)[C@H](Cc2ccccc2)NC(=O)[C@H](C(C)C)NC(=O)[C@H](C)NC(=O)CSC[C@@H](C(=O)NCCOCCOCCOCCOCCC(N)=O)NC(=O)[C@H](Cc2ccc(O)cc2)N(C)C(=O)[C@H](Cc2ccc(O)cc2)NC(=O)[C@H](CCCNC(=N)N)NC(=O)[C@H](CCCNC(=N)N)NC(=O)[C@H]([C@@H](C)CC)NC1=O [compound 264]
Kd [3]: < 1 nM

SMILES: CC[C@H](C)[C@@H]1NC(=O)[C@H](Cc2ccc(O)cc2)NC(=O)[C@H](Cc2ccc(O)cc2)NC(=O)[C@H](CC(N)=O)NC(=O)[C@H](Cc2c[nH]c3ccccc23)NC(=O)[C@H](C(C)C)NC(=O)[C@H](Cc2ccccc2)N(C)C(=O)[C@H](C(C)C)NC(=O)[C@H](C)NC(=O)CSC[C@@H](C(=O)NCC(=O)N[C@H](CCC(=O)O)C(=O)N[C@H](CCC(=O)O)C(=O)N[C@H](CCC(=O)O)C(=O)NCC(=O)N[C@H](CCCCN)C(N)=O)NC(=O)[C@H](Cc2ccc(O)cc2)N(C)C(=O)[C@H](Cc2ccc(O)cc2)NC(=O)[C@H](CCCNC(=N)N)NC(=O)[C@H](CCCNC(=N)N)NC(=O)[C@H]([C@@H](C)CC)NC1=O [compound 444]
Kd [4]: 1 to 100 nM

SMILES: CC[C@H](C)[C@@H]1NC(=O)[C@H](Cc2ccc(O)cc2)NC(=O)[C@H](Cc2ccc(O)cc2)NC(=O)[C@H](CC(N)=O)NC(=O)[C@H](Cc2c[nH]c3ccccc23)NC(=O)[C@H](C(C)C)NC(=O)[C@H](Cc2ccccc2)NC(=O)[C@H](C(C)C)NC(=O)[C@H](C)NC(=O)CSC[C@@H](C(=O)NCCOCCOCCOCCOCCOCCOCCOCCOCCOCCOCCOCCOCCC(=O)N[C@@H](CCCCNC(=O)c2ccc(-c3c4ccc(=O)cc-4oc4cc(O)ccc34)c(C(=O)O)c2)C(N)=O)NC(=O)[C@H](Cc2ccc(O)cc2)N(C)C(=O)[C@H](CO)NC(=O)[C@H](CCCNC(=N)N)NC(=O)[C@H](Cc2ccccc2)NC(=O)[C@H](CCCNC(=N)N)NC(=O)[C@H](CC(=O)O)NC(=O)[C@H]([C@@H](C)CC)NC1=O [compound 150] ({CH2CO}-AVFVWNYYIIDRFRS[NMeY]C[PEG12]K(X2)-NH2; thioether N-17)
Kd (SPR, linker and payload (FITC, VivoTag) conjugates, read-out: KD): 1 to 100 nM

SMILES: CC[C@H](C)[C@@H]1NC(=O)[C@@H]2CCCNC(=O)CC[C@H](NC(=O)[C@H](C(C)C)NC(=O)[C@H](C)NC(=O)CSC[C@@H](C(N)=O)NC(=O)[C@H](Cc3ccc(O)cc3)N(C)C(=O)[C@H](Cc3ccc(O)cc3)NC(=O)[C@H](CCCNC(=N)N)NC(=O)[C@H](CCCNC(=N)N)NC(=O)[C@H]([C@@H](C)CC)NC1=O)C(=O)N[C@@H](C(C)C)C(=O)N(C)[C@@H](Cc1c[nH]c3ccccc13)C(=O)N[C@@H](CC(N)=O)C(=O)N[C@@H](Cc1ccc(O)cc1)C(=O)N2 [compound 415] ({CH2CO}-AVEV[NMeW]NY[Orn]IIRRY[NMeY]C-NH2; lactam 3-8 (inferred); thioether N-15 (inferred))
Kd [4]: 100 to 1000 nM

SMILES: CC[C@H](C)[C@@H]1NC(=O)[C@H](Cc2ccc(O)cc2)NC(=O)[C@H](Cc2ccc(O)cc2)NC(=O)[C@H](CC(N)=O)NC(=O)[C@H](Cc2c[nH]c3ccccc23)NC(=O)[C@H](C(C)C)NC(=O)[C@H](Cc2ccccc2)NC(=O)[C@H](C(C)C)NC(=O)[C@H](C)NC(=O)CSC[C@@H](C(N)=O)NC(=O)[C@H](Cc2ccc(O)cc2)N(C)C(=O)[C@H](CCCCN)NC(=O)[C@H](CCCNC(=N)N)NC(=O)[C@H](CCCNC(=N)N)NC(=O)[C@H]([C@@H](C)CC)NC1=O [compound 261]
Kd [3]: 1 to 100 nM

SMILES: CC[C@H](C)[C@@H]1NC(=O)[C@H](Cc2ccc(O)cc2)NC(=O)[C@H](Cc2ccc(O)cc2)NC(=O)[C@H](CC(N)=O)NC(=O)[C@H](Cc2c[nH]c3ccccc23)N(C)C(=O)[C@H](C(C)C)NC(=O)[C@H](Cc2ccccc2)N(C)C(=O)[C@H](C(C)C)NC(=O)[C@H](C)NC(=O)CSC[C@@H](C(=O)NCCOCCOCCOCCOCCC(=O)N[C@@H](CCCCNC(=O)C2CCC(CN3C(=O)C=CC3=O)CC2)C(N)=O)NC(=O)[C@H](Cc2ccc(O)cc2)N(C)C(=O)[C@H](Cc2ccc(O)cc2)NC(=O)[C@H](CCCNC(=N)N)NC(=O)[C@H](CCCNC(=N)N)NC(=O)[C@H]([C@@H](C)CC)NC1=O (some centres unmarked) [compound 184]
Kd [5]: 1 to 100 nM

SMILES: CC[C@H](C)[C@@H]1NC(=O)[C@H](Cc2ccc(O)cc2)NC(=O)[C@H](Cc2ccc(O)cc2)NC(=O)[C@H](CC(N)=O)NC(=O)[C@H](Cc2c[nH]c3ccccc23)NC(=O)[C@H](C(C)C)NC(=O)[C@H](Cc2ccccc2)N(C)C(=O)[C@H](C(C)C)NC(=O)[C@H](C)NC(=O)CSC[C@@H](C(=O)NCCOCCOCCOCCOCCC(=O)NCCOCCOCCOCCOCCC(=O)N[C@@H](CCCCNC(=O)C2CCC(CN3C(=O)C=CC3=O)CC2)C(N)=O)NC(=O)[C@H](Cc2ccc(O)cc2)N(C)C(=O)[C@H](Cc2ccc(O)cc2)NC(=O)[C@H](CCCNC(=N)N)NC(=O)[C@H](CCCNC(=N)N)NC(=O)[C@H]([C@@H](C)CC)NC1=O (some centres unmarked) [compound 181]
Kd [5]: < 1 nM
